Results on 17 compounds are retold here after US20200055817A1 (AbbVie Deutschland GmbH & Co. KG, priority 2016, published 2020).

Holding throughout (assay type): cell-based
Assay [1] deals with T1, human EDG8 (S1PR5) receptor (Homo sapiens, UniProt Q9H228).
T1 construct: carries the transgenes human EDG8 (S1PR5) receptor (Acession number NP_110387.1); expressed in transfected cells; host or cells: CHO-A21-EDG8#12 (CHO clone co-expressing mitochondrial aequorin and chimaeric Gaqi5)
The assay can be described thus: Aequorin assay, agonist potency, CHO-A21-EDG8#12 cells. Conditions: agonist mode, aequorin luminescence; read-out: S1P5 EC50 range #. How it is done: (§1) Agonistic activity was measured as described below.
(§2) Cell clone CHO-A21-Edg1#17 carries the transgenes human EDG1 (S1PR1) receptor (Accession number NP_001391.2), mitochondrially targeted Aequorin (active part corresponds to accession number 1SL8_A) and chimaeric Gaqi5=Gaq modified with the 5 C-terminal amino-acids replaced with those of the Gai protein (DCGLF). CHO-A2-S1P3 Mix is a cell pool ectopically expressing human EDG3 (S1PR3) receptor (Accession number NP_005217.2) mitochondrially targeted Aequorin (active part has a sequence similar to accession number AY601106.1) and GNA16 (Accession number NP_002059.3). Cell clone CHO-A21-EDG8#12 carries the transgenes human EDG8 (S1PR5) receptor (Acession number NP_110387.1), mitochondrially expressed Aequorin (active part corresponds to accession number 1SL8_A) and chimaeric Gaqi5 (Gaq modified to present the 5 last amino-acids of the Gai protein “DCGLF”; see above). Cells are grown to mid-log phase in culture medium (HAM's F12, 10% FBS, 100 IU/mL penicillin, 100 μg/mL streptomycin, 250 μg/mL Zeocin, 400 μg/mL G418). 18 hours prior to frozen cells preparation, the medium is changed to remove the antibiotics.
(§3) 18 hours prior to the test, vials of frozen cells are quickly thawed in a 37° C. water bath, cells are recovered by centrifugation and resuspended in assay buffer (DMEM/HAM's F12 with HEPES, without phenol red+0.1% fatty acid-free BSA). Cells are gently agitated in suspension overnight at RT in presence of 5 μM of Coelenterazine h (Molecular Probes). On the day of the test, cells are diluted to their final working concentrations in assay buffer and agitated in suspension for 1 h at RT. Cells are then placed in the luminescence reader (Hamamatsu Functional Drug Screening System 6000, FDSS6000). During cells incubation, compounds are prepared in 100% DMSO, and subsequently diluted in assay buffer. Compounds are then dispensed in the assay plate (black, clear-bottom, 384-well plate). After binding of agonists to the human S1P receptor the intracellular calcium concentration increases and binding of calcium to the Aequorin/Coelenterazine complex leads to an oxidation reaction of coelenterazine, which results in the production of Aequorin, coelenteramide, CO2 and light (Dmax 469 nm). The luminescent response is dependent on the agonist concentration. For agonist testing, 30 μL of cell suspension are injected on 30 μL of test compound or reference agonist in the assay plate. The resulting emission of light is recorded for 90 seconds using the FDSS6000. Dose response curves with the reference compounds are performed before testing the compounds. S1P is the reference agonist and JTE-013 the reference antagonist for S1P2.
(§4) Luminescence data are integrated over the reading interval for agonist and antagonist modes. To standardize the emission of recorded light (determination of the “100% signal”) across plates and across different experiments, some of the wells contain 100 μM digitonin or a saturating concentration of ATP (20 μM). Plates also contain the reference agonist at a concentration equivalent to the EC80 obtained during the test validation and the EC100. Dose-response data from test compounds were analyzed with XLfit (IDBS) software using nonlinear regression applied to a sigmoidal dose-response model and the following equation: […]

Assay [2] addresses T2, S1P4 (Homo sapiens, UniProt O95977).
T2 sequence (O95977 1-384): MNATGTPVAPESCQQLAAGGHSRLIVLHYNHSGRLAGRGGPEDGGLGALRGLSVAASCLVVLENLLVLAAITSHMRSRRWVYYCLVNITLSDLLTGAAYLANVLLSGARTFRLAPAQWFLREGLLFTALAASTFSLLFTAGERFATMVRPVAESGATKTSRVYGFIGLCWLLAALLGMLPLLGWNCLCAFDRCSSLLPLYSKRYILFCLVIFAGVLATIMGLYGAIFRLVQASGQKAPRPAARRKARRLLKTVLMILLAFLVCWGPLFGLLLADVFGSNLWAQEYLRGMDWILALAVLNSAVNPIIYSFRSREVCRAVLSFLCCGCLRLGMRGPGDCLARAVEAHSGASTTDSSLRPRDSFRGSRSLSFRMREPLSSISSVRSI
As to the kind of experiment: Aequorin assay, agonist potency, S1P4. To be noted: agonist mode, aequorin luminescence. How it is done: as §1, §3, §4

Assay [3] concerns the target T3, human EDG1 (S1PR1) receptor (Homo sapiens, UniProt P21453).
T3 construct: expressed in transfected cells; host or cells: CHO-A21-Edg1#17 (CHO clone co-expressing mitochondrial aequorin and chimaeric Gaqi5)
The assay can be described thus: Aequorin assay, agonist potency, CHO-A21-Edg1#17 cells. To be noted: agonist mode, aequorin luminescence; read-out: S1P1 EC50. How it is done:
as §1, §2, §3, §4

pEC50: −log10 of the molar value. A value given as a limit tells only on which side of the number the result lay.

T3 sequence (P21453 whole entry): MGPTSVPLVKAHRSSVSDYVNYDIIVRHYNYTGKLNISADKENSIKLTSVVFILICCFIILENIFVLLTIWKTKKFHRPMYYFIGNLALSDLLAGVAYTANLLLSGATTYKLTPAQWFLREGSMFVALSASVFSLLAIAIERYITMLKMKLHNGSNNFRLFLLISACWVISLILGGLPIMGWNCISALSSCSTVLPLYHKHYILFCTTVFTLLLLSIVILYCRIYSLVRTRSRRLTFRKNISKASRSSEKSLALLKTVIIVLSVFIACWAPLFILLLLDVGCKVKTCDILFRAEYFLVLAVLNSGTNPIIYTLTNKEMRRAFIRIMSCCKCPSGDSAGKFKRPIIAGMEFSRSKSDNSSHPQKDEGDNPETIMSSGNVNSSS
T1 sequence (Q9H228 whole entry): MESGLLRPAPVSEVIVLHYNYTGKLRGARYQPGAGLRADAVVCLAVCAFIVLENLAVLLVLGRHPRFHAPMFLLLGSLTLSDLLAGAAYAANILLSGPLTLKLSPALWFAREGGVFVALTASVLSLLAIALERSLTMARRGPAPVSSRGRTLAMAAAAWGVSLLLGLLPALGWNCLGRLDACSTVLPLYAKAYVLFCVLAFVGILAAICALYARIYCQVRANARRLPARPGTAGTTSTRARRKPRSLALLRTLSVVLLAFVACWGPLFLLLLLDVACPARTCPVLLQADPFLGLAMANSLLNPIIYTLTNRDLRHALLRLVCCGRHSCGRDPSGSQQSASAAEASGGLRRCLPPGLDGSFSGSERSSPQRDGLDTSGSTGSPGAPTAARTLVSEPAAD

In the case of `CC1CCC(C#Cc2ccc3c(c2)CC2(C3)CN(CC3(C(=O)O)CC3)C2)CC1` (mixture of isomers) [Example 115, 1-((5′-((4-methylcyclohexyl)ethynyl)-1′,3′-dihydrospiro[azetidine-3,2′-inden]-1-yl)methyl)cyclopropanecarboxylic acid], the negative logarithm of the EC50 (pEC50) in assay [1] was at least 8.00; in assay [2] it was over 6.00; in assay [3] it was under 6.00.
For the compound `O=C(O)C1(CN2CC3(Cc4ccc(OCc5c(F)cccc5C5CC5)cc4C3)C2)CC1` [Example 131, 1-((5′-((2-cyclopropyl-6-fluorobenzyl)oxy)-1′,3′-dihydrospiro[azetidine-3,2′-inden]-1-yl)methyl)cyclopropanecarboxylic acid], the pEC50 is at least 8.00 in assay [1], over 6.00 in assay [2] and under 6.00 in assay [3].
In the case of `COc1ccc(C#Cc2ccc3c(c2)CC2(C3)CN(CC3(C(=O)O)CC3)C2)c(C)c1` [Example 118, 1-((5′-((4-methoxy-2-methylphenyl)ethynyl)-1′,3′-dihydrospiro[azetidine-3,2′-inden]-1-yl)methyl)cyclopropanecarboxylic acid], the negative-log EC50 (pEC50) in assay [1] was 5.00 to 6.00; in assay [2], over 6.00; in assay [3] it was under 6.00.
On to `CCc1cccc(F)c1COc1ccc2c(c1)CC1(C2)CN(CC2(C(=O)O)CC2)C1` [Example 48, 1-((5′-((2-ethyl-6-fluorobenzyl)oxy)-1′,3′-dihydrospiro[azetidine-3,2′-inden]-1-yl)methyl)cyclopropanecarboxylic acid], for which the values for the negative-log EC50 (pEC50) in assay [1], in assay [2] and in assay [3] were at least 8.00, over 6.00 and under 6.00, respectively.
The matching figures for `O=C(O)C1CC(N2CC3(Cc4ccc(C#Cc5ccc(OC6CCCC6)nc5)cc4C3)C2)C1` (stereo not shown) [Example 95, 3-(5′-((6-(cyclopentyloxy)pyridin-3-yl)ethynyl)-1′,3′-dihydrospiro[azetidine-3,2′-inden]-1-yl)cyclobutanecarboxylic acid]: at least 8.00, over 6.00 and over 6.00.
As for `O=C(O)C1CC(N2CC3(Cc4ccc(OCc5cc(Cl)ccc5Cl)cc4C3)C2)C1` (stereo not shown) [Example 93, 3-(5′-((2,5-dichlorobenzyl)oxy)-1′,3′-dihydrospiro[azetidine-3,2′-inden]-1-yl)cyclobutanecarboxylic acid], the pEC50 was 7.00 to 8.00 in assay [1], over 6.00 in assay [2] and under 6.00 in assay [3].
`CC(C)Oc1ccc(C#Cc2ccc3c(c2)CC2(C3)CN(C3CC(C(=O)O)C3)C2)cn1` (stereo not shown) [Example 96, 3-(5′-((6-isopropoxypyridin-3-yl)ethynyl)-1′,3′-dihydrospiro[azetidine-3,2′-inden]-1-yl)cyclobutanecarboxylic acid]: the pEC50 is 7.00 to 8.00 in assay [1], under 6.00 in assay [2] and over 6.00 in assay [3].
The matching figures for `CC(C)Oc1ccc(C#Cc2ccc3c(c2)CC2(C3)CN(C3CC(C(=O)O)C3)C2)cc1` (stereo not shown) [Example 97, 3-(5′-((4-isopropoxyphenyl)ethynyl)-1′,3′-dihydrospiro[azetidine-3,2′-inden]-1-yl)cyclobutanecarboxylic acid]: at least 8.00, under 6.00 and over 6.00.
Regarding `O=C(O)C1(CN2CC3(Cc4ccc(C#Cc5ccc(OC6CCCC6)nc5)cc4C3)C2)CC1` [Example 116, 1-((5′-((6-(cyclopentyloxy)pyridin-3-yl)ethynyl)-1′,3′-dihydrospiro[azetidine-3,2′-inden]-1-yl)methyl)cyclopropanecarboxylic acid], the negative logarithm of the EC50 (pEC50) in assay [1] is 7.00 to 8.00; in assay [2], under 6.00; in assay [3], under 6.00.
`COc1cccc(F)c1COc1ccc2c(c1)CC1(C2)CN(CC2(C(=O)O)CC2)C1` [Example 30, 1-((5′-((2-fluoro-6-methoxybenzyl)oxy)-1′,3′-dihydrospiro[azetidine-3,2′-inden]-1-yl)methyl)cyclopropanecarboxylic acid compound with 2,2,2-trifluoroacetic acid (1:1)]: the negative-log EC50 (pEC50) in assay [1] is 5.00 to 6.00; in assay [2], under 6.00; in assay [3], under 6.00.
As to `COc1ccc(COc2ccc3c(c2)CC2(C3)CN(CC3(C(=O)O)CC3)C2)c(C)n1` [Example 121, 1-((5′-((6-methoxy-2-methylpyridin-3-yl)methoxy)-1′,3′-dihydrospiro[azetidine-3,2′-inden]-1-yl)methyl)cyclopropanecarboxylic acid], the negative logarithm of the EC50 (pEC50) in assay [1] is 5.00 to 6.00; in assay [2], under 6.00; in assay [3] it was under 6.00.
`CCCc1ccc(COc2ccc3c(c2)CC2(C3)CN(CC3(C(=O)O)CC3)C2)c(OC)c1` [Example 2, 1-((5′-((2-methoxy-4-propylbenzyl)oxy)-1′,3′-dihydrospiro[azetidine-3,2′-inden]-1-yl)methyl)cyclopropanecarboxylic acid]: the pEC50 in assay [1] was 5.00 to 6.00; in assay [2], over 6.00; in assay [3], under 6.00.
Consider `Cc1cccc(F)c1COc1ccc2c(c1)CC1(C2)CN(CC2(C(=O)O)CC2)C1` [Example 42, 1-((5′-((2-fluoro-6-methylbenzyl)oxy)-1′,3′-dihydrospiro[azetidine-3,2′-inden]-1-yl)methyl)cyclopropanecarboxylic acid compound with 2,2,2-trifluoroacetic acid (1:1)], for which the pEC50 in assay [1] was 6.00 to 7.00; in assay [2], over 6.00; in assay [3], under 6.00.
Consider `O=C(O)CN1CC2(Cc3ccc(OCc4c(Cl)cccc4C(F)(F)F)cc3C2)C1` [Example 20, 2,2,2-trifluoroacetic acid compound with 2-(5′-((2-chloro-6-(trifluoromethyl)benzyl)oxy)-1′,3′-dihydrospiro[azetidine-3,2′-inden]-1-yl)acetic acid (1:1)], for which the pEC50 in assay [1] was at least 8.00; in assay [2] it was over 6.00; in assay [3] it was under 6.00.
With `O=C(O)C1(CN2CC3(Cc4ccc(OCCc5ccc(F)cc5)cc4C3)C2)CC1` [Example 137, 1-((5′-(4-fluorophenethoxy)-1′,3′-dihydrospiro[azetidine-3,2′-inden]-1-yl)methyl)cyclopropanecarboxylic acid], the pEC50 is 5.00 to 6.00 in assay [1], over 6.00 in assay [2] and under 6.00 in assay [3].
On to `O=C(O)C1CC(N2CC3(Cc4ccc(OCc5c(Cl)cccc5C5CC5)cc4C3)C2)C1` (stereo not shown) [Example 91, 3-(5′-((2-chloro-6-cyclopropylbenzyl)oxy)-1′,3′-dihydrospiro[azetidine-3,2′-inden]-1-yl)cyclobutanecarboxylic acid], for which the figures for the pEC50 in assay [1], in assay [2] and in assay [3] were at least 8.00, over 6.00 and over 6.00, respectively.
On to `CCOc1ccc(C#Cc2ccc3c(c2)CC2(C3)CN(CC3(C(=O)O)CC3)C2)cc1` [Example 1, 1-((5′-((4-ethoxyphenyl)ethynyl)-1′,3′-dihydrospiro[azetidine-3,2′-inden]-1-yl)methyl)cyclopropanecarboxylic acid compound with 2,2,2-trifluoroacetic acid (1:1)], for which, in assay [1], the negative logarithm of the EC50 (pEC50) was 5.00 to 6.00.
